Converted amounts (≈) assume the structure as drawn.
Legend:
[1] = Aqueous solubility of the compound at pH 6.8; type: physicochemical; settings: aqueous medium
[2] = Intrinsic clearance in mouse liver microsomes at 0.2 uM; type: ADME, Microsome
[3] = Intrinsic clearance in human liver microsomes at 0.2 uM; type: ADME, Microsome
[4] = AUC (0 to 24 hrs) in Sprague-Dawley rat at 0.3 mg/kg, iv; type: ADME, organism-based; set-up: time < 24 hr, dose 0.3 mg/kg, route intravenous; settings: plasma
[5] = Oral availability in Sprague-Dawley rat at 1 mg/kg; type: ADME, organism-based; set-up: dose 1 mg/kg; settings: in vivo
[6] = Volume of distribution at steady state in Sprague-Dawley rat at 0.3 mg/kg, iv; type: ADME, organism-based; set-up: dose 0.3 mg/kg, route intravenous; settings: in vivo, read-out: Vdss
[7] = Tmax in Sprague-Dawley rat at 1 mg/kg, po; type: ADME, organism-based; set-up: dose 1 mg/kg, route oral; settings: in vivo
[8] = Half life in Sprague-Dawley rat at 0.3 mg/kg, iv; type: ADME, organism-based; set-up: dose 0.3 mg/kg, route intravenous; settings: in vivo
[9] = Cmax in Sprague-Dawley rat at 1 mg/kg, po; type: ADME, organism-based; set-up: dose 1 mg/kg, route oral; settings: in vivo
[10] = AUC (0 to 24 hrs) in Sprague-Dawley rat at 1 mg/kg, po; type: ADME, organism-based; set-up: time < 24 hr, dose 1 mg/kg, route oral; settings: plasma
[11] = Total clearance in Sprague-Dawley rat at 0.3 mg/kg, iv; type: ADME, organism-based; set-up: dose 0.3 mg/kg, route intravenous; settings: in vivo
[12] = Tmax in Sprague-Dawley rat at 3 mg/kg, po; type: ADME, organism-based; set-up: dose 3 mg/kg, route oral; settings: in vivo
[13] = Oral availability in Sprague-Dawley rat at 3 mg/kg; type: ADME, organism-based; set-up: dose 3 mg/kg; settings: in vivo
[14] = AUC (0 to 24 hrs) in Sprague-Dawley rat at 3 mg/kg, po; type: ADME, organism-based; set-up: time < 24 hr, dose 3 mg/kg, route oral; settings: plasma
[15] = Cmax in Sprague-Dawley rat at 3 mg/kg, po; type: ADME, organism-based; set-up: dose 3 mg/kg, route oral; settings: in vivo

SMILES	solubility [1] [µM]	CLint scaled at 0.2 µM [2] [mL/min/kg]	CLint scaled at 0.2 µM [3] [mL/min/kg]	other results
COC(C)(C)CCOc1cccc(OCc2[nH]c3ccccc3c(=O)c2C)c1	2 (≈ 0.763 µg/mL)	> 1000	> 1000	–
Cc1c(COc2cccc(OCC3CCOCC3)c2)[nH]c2ccc(F)cc2c1=O	2 (≈ 0.795 µg/mL)	> 1000	473	–
Cc1c(COc2cccc(OCC3CCOCC3)c2)[nH]c2ccc(Cl)cc2c1=O	< 1	> 1000	> 1000	–
COCCOCCCCc1[nH]c2ccccc2c(=O)c1C	≥ 100	> 1000	45	–
Cc1c(COc2cccc(OCC3CCOCC3)c2)[nH]c2ccc(-c3cccnc3)cc2c1=O	< 1	> 1000	756	–
Cc1c(COc2cccc(OCCCC(F)(F)F)c2)nc2ccccc2c1O	< 1	> 1000	257	–
O=c1c(Cl)c(COc2cccc(OCC3CCOCC3)c2)[nH]c2ccccc12	2 (≈ 0.8 µg/mL)	> 1000	460	–
CC(C)c1c(COc2cccc(OCC3CCOCC3)c2)[nH]c2ccccc2c1=O	3 (≈ 1.22 µg/mL)	–	–	–
Cc1c(COc2cccc(OCC3CCOCC3)c2)[nH]c2ccc(C(=O)O)cc2c1=O	≥ 100	< 50	< 20	–
CCCCOc1cccc(OCc2[nH]c3ccccc3c(=O)c2C)c1	< 1	> 1000	> 1000	–
COc1ccc2[nH]c(COc3cccc(OCC4CCOCC4)c3)c(C)c(=O)c2c1	< 1	–	–	–
Cc1c(COCCCCOCC2(C)COC2)[nH]c2ccccc2c1=O	≥ 100	295	53	–
O=c1cc(COc2cccc(OCC3CCOCC3)c2)[nH]c2ccccc12	4 (≈ 1.46 µg/mL)	197	78	–
Cc1c(COc2cccc(OCC3CCOCC3)n2)[nH]c2ccccc2c1=O	3 (≈ 1.14 µg/mL)	984	770	–
Cc1c(COCCCCO)nc2ccccc2c1O	≥ 100	–	–	–
Cc1c(COc2cc(OCCC(C)(C)O)ccn2)[nH]c2ccccc2c1=O	85 (≈ 31.3 µg/mL)	112	38	AUC(0-t) at 24 h [4]: 897 ng·h/mL; bioavailability [5]: 78%; Vd [6]: 1.4 L/kg; Tmax [7]: 4 h; half-life [8]: 4.1 h; Cmax [9]: 202 ng/mL; AUC(0-t) at 24 h [10]: 2240 ng·h/mL; clearance [11]: 6 mL/min/kg
CCCCCCCCCc1[nH]c2ccccc2c(=O)c1C	< 1	> 1000	> 1000	–
Cc1c(COc2ccnc(OCC3CCOCC3)c2)[nH]c2ccccc2c1=O	22 (≈ 8.37 µg/mL)	203	95	–
Cc1ccc2[nH]c(COc3cccc(OCC4CCOCC4)c3)c(C)c(=O)c2c1	< 1	–	–	–
CCCCCC/C=C/Cc1[nH]c2ccccc2c(=O)c1C	< 1	> 1000	> 1000	–
Cc1c(COc2cncc(OCC3CCOCC3)c2)[nH]c2ccccc2c1=O	≥ 100	238	133	–
Cc1c(COc2cccc(OCC3CCOCC3)c2)[nH]c2ccc(Br)cc2c1=O	< 1	–	–	–
Cc1c(COc2cc(OCC3CCOCC3)ccn2)[nH]c2ccccc2c1=O	36 (≈ 13.7 µg/mL)	312	113	–
Cc1c(COc2cccc(OCC3CCOCC3)c2)[nH]c2ccccc2c1=O	5 (≈ 1.9 µg/mL)	420	214	AUC(0-t) at 24 h [4]: 196 ng·h/mL; Tmax [12]: 0.22 h; bioavailability [13]: 27%; Vd [6]: 2.3 L/kg; half-life [8]: 1.8 h; AUC(0-t) at 24 h [14]: 526 ng·h/mL; Cmax [15]: 196 ng/mL; clearance [11]: 26 mL/min/kg
Cc1c(COc2cncc(OCCC(C)(C)O)c2)[nH]c2ccccc2c1=O	≥ 100	225	66	–

Reference: ChEMBL document CHEMBL1909616, “Identification of 4-quinolone derivatives as inhibitors of reactive oxygen species production from human umbilical vein endothelial cells” (Bioorg Med Chem Lett, 2011)
